In US12077503B2, “Substituted cyclic amides and their use as herbicides” (FMC CORPORATION, priority 2015, dated 2024):

Columns and labels:
Format in all cases: in vivo
[1] = test system: bearded sprangletop (Leptochloa fascicularis); experiment: Test F flooded paddy test; set-up: key: 0 = no effect, 100 = complete control; details: Flood
From the text: (§1) Plant species in the flooded paddy test consisted of one stand of 9 or 10 water seeded rice seedlings (Rice, W. S. Jap, Oryza sativa cv. ‘Japonica—M202’ or Rice, W. S. Ind, ‘Indica’), and two stands of 3 or 4 transplanted rice seedlings (Oryza sativa cv. ‘Japonica—M202’), Monochoria (Monochoria vaginalis), sedge, umbrella (small-flower umbrella sedge, Cyperus difformis), hardstem bulrush (Scirpus juncoides), redstem (purple redstem, Ammannia coccinea), rice flatsedge (Cyperus iria), bearded sprangletop (Leptochloa fascicularis), barnyardgrass (Echinochloa crus-galli), waterplantain (common waterplantain, Alisma plantago-aquatica), and late watergrass (Echinochloa oryzicola) grown to the 2 to 2.5 leaf stage for testing. Potted plants were grown in a greenhouse with day/night temperature settings of 30/27° C., and supplemental balanced lighting was provided to maintain a 16-hour photoperiod. At time of treatment, test pots were flooded to 3 cm above the soil surface, treated by application of test compounds directly to the paddy water, and then maintained at that water depth for the duration of the test. Effects of treatments on rice and weeds were visually evaluated by comparison to untreated controls after 21 d. Plant response ratings, summarized in Table F, are based on a scale of 0 to 100 where 0 is no effect and 100 is complete control. A dash (-) response means no test result.

[2] = test system: transplanted rice seedlings (Oryza sativa cv. ‘Japonica—M202’); experiment: Test F flooded paddy test; set-up: key: 0 = no effect, 100 = complete control; details: Flood
From the text: as §1

[3] = test system: late watergrass (Echinochloa oryzicola); experiment: Test F flooded paddy test; set-up: key: 0 = no effect, 100 = complete control; details: Flood
From the text: as §1

[4] = test system: Monochoria (Monochoria vaginalis); experiment: Test F flooded paddy test; set-up: key: 0 = no effect, 100 = complete control; details: Flood
From the text: as §1

[5] = test system: barnyardgrass (Echinochloa crus-galli); experiment: Test F flooded paddy test; set-up: key: 0 = no effect, 100 = complete control; details: Flood
From the text: as §1

[6] = test system: water seeded rice seedlings (Rice, W. S. Jap, Oryza sativa cv. ‘Japonica—M202’); experiment: Test F flooded paddy test; set-up: key: 0 = no effect, 100 = complete control; details: Flood
From the text: as §1

[7] = test system: wheat, winter (winter wheat, Triticum aestivum); experiment: Test D preemergence; details: scale 0 to 100
From the text: (§2) Seeds of plant species selected from bluegrass (annual bluegrass, Poa annua), blackgrass (Alopecurus myosuroides), canarygrass (littleseed canarygrass, Phalaris minor), chickweed (common chickweed, Stellaria media), Galium (catchweed bedstraw, Galium aparine), bromegrass, downy (downy bromegrass, Bromus tectorum), field poppy (Papaver rhoeas), field violet (Viola arvensis), foxtail, green (green foxtail, Setaria viridis), deadnettle (henbit deadnettle, Lamium amplexicaule), ryegrass, Italian (Italian ryegrass, Lolium multiflorum), Kochia (Kochia scoparia), lambsquarters (Chenopodium album), oilseed rape (Brassica napus), pigweed (Amaranthus retroflexus), chamomile (scentless chamomile, Matricaria inodora), Russian thistle (Salsola kali), speedwell (bird's-eye speedwell, Veronica persica), barley, spring (spring barley, Hordeum vulgare), wheat, spring (spring wheat, Triticum aestivum), buckwheat, wild (wild buckwheat, Polygonum convolvulus), mustard, wild (wild mustard, Sinapis arvensis), oat, wild (wild oat, Avena fatua), radish, wild (wild radish, Raphanus raphanistrum), windgrass (Apera spica-venti), barley, winter (winter barley Hordeum vulgare), and wheat, winter (winter wheat, Triticum aestivum) were planted into a silt loam soil and treated preemergence with test chemicals formulated in a non-phytotoxic solvent mixture which included a surfactant.
(§3) Treated plants and controls were maintained in a controlled growth environment approximately 21 d after which time all species were compared to controls and visually evaluated. Plant response ratings, summarized in Table D, are based on a scale of 0 to 100 where 0 is no effect and 100 is complete control. A dash (-) response means no test result.

[8] = test system: Kochia (Kochia scoparia); experiment: Test D preemergence; details: scale 0 to 100
From the text: as §2, §3

[9] = test system: horseweed (Conyza canadensis); experiment: Test E preemergence; details: scale 0 to 100
How it was run: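 Visual ratings from 0 (no effect) to 100 (complete control) were made versus controls 14 to 21 d after treatment. Seeds in silt loam were treated preemergence, or plants 2 to 18 cm tall in peat-based medium postemergence, with the test chemical in a surfactant-containing, non-phytotoxic solvent mixture, then held in a greenhouse.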

## CN1C[C@H](c2ccc(F)c(F)c2)[C@@H](C(=O)Nc2ccccc2F)C1=O [Compound 596, (3S,4S)-4-(3,4-difluorophenyl)-N-(2-fluorophenyl)-1-methyl-2-oxo-3-pyrrolidinecarboxamide]
[1]; 16 g ai/ha
  Plant response rating: Sprangletop, Brdd.: 0
[1]; 32 g ai/ha
  Plant response rating: Sprangletop, Brdd.: 40
[1]; 64 g ai/ha
  Plant response rating: Sprangletop, Brdd.: 85
[1]; 125 g ai/ha
  Plant response rating: Sprangletop, Brdd.: 85
[1]; 250 g ai/ha
  Plant response rating: Sprangletop, Brdd.: 95
[2]; 16 g ai/ha
  Plant response rating: Rice, Transplanted: 0
[2]; 32 g ai/ha
  Plant response rating: Rice, Transplanted: 0
[2]; 64 g ai/ha
  Plant response rating: Rice, Transplanted: 0
[2]; 125 g ai/ha
  Plant response rating: Rice, Transplanted: 0
[2]; 250 g ai/ha
  Plant response rating: Rice, Transplanted: 0
[3]; 16 g ai/ha
  Plant response rating: Watergrass, Late: 15
[3]; 32 g ai/ha
  Plant response rating: Watergrass, Late: 40
[3]; 64 g ai/ha
  Plant response rating: Watergrass, Late: 85
[3]; 125 g ai/ha
  Plant response rating: Watergrass, Late: 100
[3]; 250 g ai/ha
  Plant response rating: Watergrass, Late: 100
[4]; 16 g ai/ha
  Plant response rating: Monochoria: 25
[4]; 32 g ai/ha
  Plant response rating: Monochoria: 45
[4]; 64 g ai/ha
  Plant response rating: Monochoria: 100
[4]; 125 g ai/ha
  Plant response rating: Monochoria: 100
[4]; 250 g ai/ha
  Plant response rating: Monochoria: 100
[5]; 16 g ai/ha
  Plant response rating: Barnyardgrass: 45
[5]; 32 g ai/ha
  Plant response rating: Barnyardgrass: 65
[5]; 64 g ai/ha
  Plant response rating: Barnyardgrass: 100
[5]; 125 g ai/ha
  Plant response rating: Barnyardgrass: 100
[5]; 250 g ai/ha
  Plant response rating: Barnyardgrass: 100
[6]; 16 g ai/ha
  Plant response rating: Rice, Water Seeded: 0
[6]; 32 g ai/ha
  Plant response rating: Rice, Water Seeded: 0
[6]; 64 g ai/ha
  Plant response rating: Rice, Water Seed.: 10
[6]; 125 g ai/ha
  Plant response rating: Rice, Water Seed.: 10
[6]; 250 g ai/ha
  Plant response rating: Rice, Water Seeded: 15

## CN1C[C@H](c2ccc(C(F)(F)F)cc2)[C@@H](C(=O)Nc2cccc(F)c2F)C1=O [Compound 623, (3S,4S)—N-(2,3-difluorophenyl)-1-methyl-2-oxo-4-[4-(trifluoromethyl)phenyl]-3-pyrrolidinecarboxamide]
[7]; 31 g ai/ha
  Plant response rating: Wheat, Winter: 5
[7]; 62 g ai/ha
  Plant response rating: Wheat, Winter: 20
[7]; 125 g ai/ha
  Plant response rating: Wheat, Winter: 20
[7]; 250 g ai/ha
  Plant response rating: Wheat, Winter: 40
[8]; 31 g ai/ha
  Plant response rating: Kochia: 25
[8]; 62 g ai/ha
  Plant response rating: Kochia: 75
[8]; 125 g ai/ha
  Plant response rating: Kochia: 95
[8]; 250 g ai/ha
  Plant response rating: Kochia: 95
[9]; 31 g ai/ha
  Plant response rating: Horseweed: 80
[9]; 62 g ai/ha
  Plant response rating: Horseweed: 90
[9]; 125 g ai/ha
  Plant response rating: Horseweed: 90
[9]; 250 g ai/ha
  Plant response rating: Horseweed: 90
